According to patent US6858718B1, “Hydrogen production” (Melis Energy, priority 2001, dated 2005):
Entries after “also recorded” stand apart in the source; their conditions may differ. Read-outs that look alike come from different tables or passages of the source.

Assays:
[1] = test system: iron hydrogenase from S. obliquus; assay: Biochemical data of purified iron hydrogenase, hydrogen evolution assay with reduced methyl viologen; set-up: species or system Scenedesmus obliquus
Protocol: (§1) The in vitro hydrogenase activity was measured by using a Hewlett Packard (HP 5890, Series II) gas chromatograph, equipped with a thermal conductivity detector and a molecular sieve column. Methyl viologen reduced by sodium dithionite was used as an electron donor. 1 unit is defined as the amount of hydrogenase evolving 1 mmol of molecular hydrogen (H2) per minute at 25° C.
40-liter cultures of Scenedesmus obliquus were grown heterotrophically. After centrifugation (10 min, 5000×g) the pellet we re-suspended in 200 ml TAP medium. The cells were anaerobically adapted by flushing the solution with argon for 1 hour in the dark. All further purification steps were performed in an anaerobic chamber (Coylab, Ann Arbor, Mich., USA). The cells were disrupted in a 50 mM Tris/HCl, buffer pH 8.0, 10 mM sodium dithionite by vortexing 3 min with glass beads. The further purification steps were made as described hereinbelow for the isolation of the Fe-hydrogenase of Chlamydomonas reinhardti. Automated Edman degradation of the N-terminal site of the protein was performed with an Applied Biosystem model 477A sequencer with online analysator model 120 A.
The N-terminal sequence of HydA was determined by Edman degradation.

[2] = test system: iron hydrogenase from C. reinhardtii; assay: as above; set-up: species or system Chlamydomonas reinhardtii
Protocol: Hydrogenase activity of C. reinhardtii was determined in vitro with reduced methyl viologen using a gas chromatograph (Hewlett Packard 5890 Å Series II, column: molecular Sieve 5 Å, Mesh 60/80). The assay, containing in a final volume of 2 mL Pipes pH 6.8 (20 mM), Na2S2O4 (20 mM), MV (5 mM), was incubated anaerobically at 25° C. for 20 min. One unit is defined as he amount of hydrogenase evolving 1 μmol H2 per minute.
Cells from a 40-L culture of C. reinhardtii were harvested by ultra filtration through an Amicon Ultrafiltration System DC 10 LA, with a hollow-fiber filter. The pellet was resuspended in 200 mL TAP medium. After anaerobic adaptation by flushing the solution with argon for 1 h in the dark, all steps were performed under strictly anaerobic conditions. The isolated Fe-hyrogenase was chemically cleaved by cyanogen brormide (CNBr). After separation of he CNBr fragments on an SDS polyacrylamide gel, four peptides were blotted onto a poly(vinylidene difluoride) membrane and were sequenced. Automated Edman degradation was performed with an Applied Biosystem model 477 A sequencer with online analysator model 120 A.
To verify that the hydA ORF encodes the Fe-hydrogenase of C. reinhardtii, the enzyme was purified according to Happe and Naber (Eur. J. Biochem. 214,475-481 (1993)). The purified protein was able to evolve hydrogen, when incubated with reduced methyl viologen. After proteolytic digestion with cyanogen bromide, four bands of 4, 8, 9 and 11 kDa were detected after SDSIPAGE separation (data not shown). Two fragments (9 and 11 kDa) were sequenced by Edman degradation. […] The two fragment sequences are identical with he deduced amino-acid sequence of hydA (sequences are shadowed in gray in FIG. 6). The fragment corresponding to the cDNA region between 158 and 1636 bp of hydA was NdeI-BamHI cloned into the expression vector pET9a. The heterologous expressed protein was detected using antibodies raised against the Fe-hydrogenase. Both the purified Fe-hydrogenase of C. reinhardtii and the overexpressed enzyme had the same size (47.5 kDa). […] (ibid) who also detected no H2-production of the recombinant expressed Fe-hydrogenase from Desulfovibrio vulgaris in E. coli cells. An explanation might be the inability of E. coli to assemble the unique active site of the Fe-hydrogenases. It is known that E. coli has only three NiFe-hydrogenases with a different maturation system for the catalytic center.

hydrogenase activity = assay: In vivo hydrogenase activity (H2 evolution) of anaerobically adapted cells in the presence of inhibitors of the photosynthetic electron flow; format: cell-based, Scenedesmus obliquus; conditions: for Effect on H2 photoproduction / hydrogenase activity (in words): S. obliquus cells after anaerobic adaptation
Protocol: (§2) The in vivo activity in the presence of different inhibitors of the photosynthetic electron flow was determined as described by Happe et al., in: European Journal of Biochemistry, 214, 475-481 (1993). After anaerobic adaptation, algal cells were harvested, diluted in fresh Tris acetate phosphate medium, and transferred to sealed tubes. Inhibitors were added 1 hour before H2 evolving activity was measured. Cells were broken by sonification. […] Ferrodoxin of both C. reinhardtii and S. obliquus was isolated according to the method of Schmitter et al. (Eur. J.l of Biochem., 172, pages 405-412 (1988)).
Hydrogenase activity was determined in intact and broken cells after anaerobic adaptation. […] This rate corresponds to 85% of the oxygen evolution measure with intact Scenedesmus cells.
In S. obliquus, the hydrogen evolution is linked to the photosynthetic electron transport chain through PSI. […] With reference to Table II, after anaerobic adaptation, cells were harvested, diluted in fresh, TAP medium, and incubated with inhibitors as described herein. α-PetF-antibody was raised against spinach ferredoxin. In Table II, DCMU=3-(3,4-dichlorophenyl)-1,1-dimethylurea; DBMIB=2,5-dibromo-3-methyl-6 isopropyl-p-benzochinone; Sulfo-DSPD=sulfodisalicylidinepropanediamin; DCPIP=2,6-dichlorophenolindophenol. The electron transport from PSI to ferredoxin was inhibited using the artificial electron acceptor DCPIP. In this reaction, DCPIP is reduced instead of ferredoxin and electron transfer to hydrogenase is interrupted.

H2-evolution = conditions: C. reinhardtii, stated as known; cited from earlier work
[3] = test system: purified S. obliquus hydrogenase; assay: Electron transfer properties of electron donors measured in vitro with dithionite as reducing reagent; format: biochemical, Scenedesmus obliquus; conditions: for H2-evolving activities: ferredoxin as electron donor, dithionite as reducing reagent
Protocol: as §1, §2
The electron transfer properties of different plant-type ferredoxins were measured in vitro with dithionite as a reducing reagent. […] In this assay, H2-evolving activities of 420, 390 and 350 U/mg protein with S. obliquus, C. reinhardtii and spinach ferredoxin, respectively, were observed. […] In D. desulfuricans, the Fe-hydrogenase has been reported to catalyze both hydrogen production and uptake with low potential multiheme cytochromes such as cytochrome c3.

[4] = Hydrogenase activity of lysate of induced E. coli cells expressing C. reinhardtii hydA; format: cell-based, Escherichia coli; conditions: lysate of the induced E. coli cells
Protocol: The hydA gene, corresponding to amino acids 57-497, was amplified, confirmed by sequences analysis and cloned into corresponding sites of he pET9a expression vector (Promega). The constructed plasmid was then ransformed into E. coli strain BL21(DE3). After induction with 1 mM isopropyl-thio-β-D-galactoside, the cells were resuspended in lysis buffer. Crude extracts from C. reinhardtii were isolated by harvesting cells after indicated anaerobic adaptation times. The pellet was resuspended in solubilization buffer and incubated with vigorous vortexing at RT for 30 min. The protein extracts from C. reinhardtii and E. coli were separated by 12% SDS/PAGE and blotted onto a poly(vinylidenedifluoride) membrane. Affinity-purified antibodies were diluted 1:200 and used for Western blot analyses.
To verify that the hydA ORF encodes the Fe-hydrogenase of C. reinhardtii, the enzyme was purified according to Happe and Naber (Eur. J. Biochem. 214,475-481 (1993)). […] After proteolytic digestion with cyanogen bromide, four bands of 4, 8, 9 and 11 kDa were detected after SDSIPAGE separation (data not shown). […] The heterologous expressed protein was detected using antibodies raised against the Fe-hydrogenase. […] (ibid) who also detected no H2-production of the recombinant expressed Fe-hydrogenase from Desulfovibrio vulgaris in E. coli cells. […]

[5] = Hydrogenase activity of lysate of induced E. coli cells expressing S. obliquus hydA; format: cell-based, Escherichia coli
[6] = broken cells, inhibitor 10^−5 M
[7] = intact cells, inhibitor 10^−5 M, added 1 hour before measurement
[8] = broken cells, inhibitor 10^−4 M
[9] = methyl viologen, read-out: KM value (MV)

[C-]#[O+] [CO]
Inhibition of the enzyme (in words) [1]: strongly inhibited
Inhibition of the enzyme (in words) [2]: strongly inhibited

CC1=C(Br)C(=O)C(C(C)C)=C(Br)C1=O [DBMIB, 2,5-dibromo-3-methyl-6 isopropyl-p-benzochinone]
Effect on H2 photoproduction / hydrogenase activity (in words) (hydrogenase activity): inhibition of the H2-production
Hydrogenase activity (hydrogenase activity; [6]): 0.006 Units/mg chlorophyll
Hydrogenase activity (hydrogenase activity; [7]): 0.005 Units/mg chlorophyll
Effect on H2 photoproduction (in words) (H2-evolution): no H2-evolution

CN(C)C(=O)Nc1ccc(Cl)c(Cl)c1 [DCMU, 3-(3,4-dichlorophenyl)-1,1-dimethylurea]
Effect on H2 photoproduction / hydrogenase activity (in words) (hydrogenase activity): still able to photoproduce hydrogen; also recorded: not influenced
Hydrogenase activity (hydrogenase activity; [6]): 0.11 Units/mg chlorophyll
Hydrogenase activity (hydrogenase activity; [7]): 0.10 Units/mg chlorophyll
Effect on H2 photoproduction (in words) (H2-evolution): still able to photoproduce hydrogen

O=C1C(Cl)=CC(=Nc2ccc(O)cc2)C=C1Cl [DCPIP, 2,6-dichlorophenolindophenol]
Hydrogenase activity (hydrogenase activity; [8]): 0.003 Units/mg chlorophyll

NC(=O)C1=CN([C@@H]2O[C@H](COP(=O)(O)OP(=O)(O)OC[C@H]3O[C@@H](n4cnc5c(N)ncnc54)[C@H](OP(=O)(O)O)[C@@H]3O)[C@@H](O)[C@H]2O)C=CC1 [NADPH, reference compound]
Hydrogen production with other possible electron donors (in words) ([3]; in vitro, purified S. obliquus hydrogenase): No hydrogen production

O=O [O2]
Inhibition of the enzyme (in words) [1]: strongly inhibited
Inhibition of the enzyme (in words) ([1]; listed as oxygen): irreversibly inactivated
Inhibition of the enzyme (in words) [2]: strongly inhibited

C. reinhardtii ferredoxin: plant-type [2Fe-2S] ferredoxin isolated from C. reinhardtii
H2-evolving activities [3]: 390 U/mg protein

spinach ferredoxin: plant-type [2Fe-2S] ferredoxin of spinach
H2-evolving activities [3]: 350 U/mg protein

sulfodisalicylidinepropanediamin [sulfo-DSPD]
Effect on H2 photoproduction / hydrogenase activity (in words) (hydrogenase activity): specifically blocked
Reduction of hydrogenase activity (hydrogenase activity; S. obliquus, Table II): up to 30 fold
Hydrogenase activity (hydrogenase activity; [8]): 0.003 Units/mg chlorophyll

B1: C. reinhardtii iron hydrogenase: Fe-hydrogenase HydA from Chlamydomonas reinhardtii, mature polypeptide of 441 amino acids, SEQ. ID. NO. 5 precursor (protein)
chain: AAPAAEAPLSHVQQALAELAKPKDDPTRKHVCVQVAPAVRVAIAETLGLAPGATTPKQLAEGLRRLGFDEVFDTLFGADLTIMEEGSELLHRLTEHLEAHPHSDEPLPMFTSCCPGWIAMLEKSYPDLIPYVSSCKSPQMMLAAMVKSYLAEKKGIAPKDMVMVSIMPCTRKQSEADRDWFCVDADPTLRQLDHVITTVELGNIFKERGINLAELPEGEWDNPMGVGSGAGVLFGTTGGVMEAALRTAYELFTGTPLPRLSLSEVRGMDGIKETNITMVPAPGSKFEELLKHRAAARAEAAAHGTPGPLAWDGGAGFTSEDGRGGITLRVAVANGLGNAKKLITKMQAGEAKYDFVEIMACPAGCVGGGGQPRSTDKAITQKRQAALYNLDEKSTLRRSHENPSIRELYDTYLGEPLGHKAHELLHTHYVAGGVEEKDEKK
Km ([2]; ferredoxin, read-out: KM value (ferredoxin)): 35 µM
Km [2, 9]: 830 µM
Specific activity ([2]; purified enzyme): 935 U/mg protein
pI value ([2]; purified enzyme): 5.3
Hydrogenase activity of lysate (in words) [4]: No hydrogenase activity

B2: S. obliquus iron hydrogenase: monomeric iron hydrogenase (HydA) of 44.5 kDa from Scenedesmus obliquus, SEQ. ID. NO. 4; recombinant form expressed in E. coli (protein, listed as Scenedesmus obliquus)
chain: MPEWQPGGRYAVSVRPPVNRRAVVAAERRRLVVRAAGPTAECDCPPAPAPKAPHWQQTLDELAKPKEQRKVMIAQIAPAVRVAIAETMGLNPGDVTVGQMVTGLRMLGFDYVFDTLFGADLTIMEEGTELLHRLQDHLEQHPNKEEPLPMFTSCCPGWVAMVEKSNPELIPYLSSCKSPQMMLGAVIKNYFAAEAGAKPEDICNVSVMPCVRKQGEADREWFNTTGAGGANVDHVMTTAELGKIFVERGIKLNDLQETPFDNPVGEGSGGVLFGTTGGVMEAALRTVYEVVTQKPLDRIVFEDVRGLEGIKESTLHLTPGPTSPFKAFAGADGTGITLNIAVANGLGNAKKLIKQLAAGESKYDFIEVMACPGGCIGGGGQPRSADKQILQKRQAAMYDLDERAVIRRSHENPLIGALYEKFLGEPNGHKAHELLHTHYVAGGVPDEK
Km [1, 9]: 800 µM
Specific activity ([1]; purified enzyme): 700 U/mg protein
pI value ([1]; purified enzyme): 5.17
Hydrogenase activity of lysate (in words) [5]: no hydrogenase activity
